ChEMBL document CHEMBL1201862, “PubChem BioAssay data set” (2004)
Active and inactive are the calls of the source. For most assays here, no stated cut-off is given here; in the data, actives have a measured EC50 and inactives only a lower limit.

How the values were obtained:
[1] = HEp-2 cell cytotoxicity, dose response, cytotoxicity control for RSV inhibitor project, HTS (AID 2410); assay type: functional; details: human respiratory syncytial virus
[2] = molecular target: T1, Replicative DNA helicase DnaB (Mycobacterium tuberculosis, UniProt P9WMR3); test: DnaB intein splicing inhibitors, dose response, biochemical, cell-free fluorescence (AID 449749); assay type: functional
T1 sequence (P9WMR3 whole entry): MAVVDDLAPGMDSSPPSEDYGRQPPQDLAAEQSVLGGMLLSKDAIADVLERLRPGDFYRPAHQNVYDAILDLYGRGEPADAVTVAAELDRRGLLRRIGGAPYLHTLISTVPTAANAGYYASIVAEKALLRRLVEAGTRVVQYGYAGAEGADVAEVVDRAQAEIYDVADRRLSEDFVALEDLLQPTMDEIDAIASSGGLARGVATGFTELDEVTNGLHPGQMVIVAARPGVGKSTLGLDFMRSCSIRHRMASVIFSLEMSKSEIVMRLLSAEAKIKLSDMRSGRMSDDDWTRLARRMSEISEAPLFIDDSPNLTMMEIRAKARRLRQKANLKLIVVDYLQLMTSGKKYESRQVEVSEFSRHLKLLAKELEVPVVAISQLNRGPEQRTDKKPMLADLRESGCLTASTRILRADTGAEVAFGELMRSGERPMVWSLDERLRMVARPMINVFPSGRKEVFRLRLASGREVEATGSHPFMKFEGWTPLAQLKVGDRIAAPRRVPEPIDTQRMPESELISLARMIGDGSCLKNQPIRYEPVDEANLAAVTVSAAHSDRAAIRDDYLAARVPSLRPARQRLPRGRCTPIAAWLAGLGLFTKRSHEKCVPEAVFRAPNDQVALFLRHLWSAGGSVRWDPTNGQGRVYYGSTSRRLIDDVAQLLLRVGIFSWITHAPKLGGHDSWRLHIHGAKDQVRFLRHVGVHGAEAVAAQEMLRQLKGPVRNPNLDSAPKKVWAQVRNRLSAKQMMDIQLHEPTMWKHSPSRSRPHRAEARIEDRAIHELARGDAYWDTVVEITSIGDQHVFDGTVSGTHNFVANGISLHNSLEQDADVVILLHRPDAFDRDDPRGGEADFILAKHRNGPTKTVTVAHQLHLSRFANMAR

Protein RecA = molecular target: T2, Protein RecA (Mycobacterium tuberculosis, UniProt P9WHJ3); test: Fluorescence Cell-Free Homogeneous Dose Retest to Identify Inhibitors of RecA-Intein Splicing Activity. [Related pubchem assays (depositor defined):AID2097, AID2223, AID489010, AID492950]; assay type: functional
T2 sequence (P9WHJ3 whole entry): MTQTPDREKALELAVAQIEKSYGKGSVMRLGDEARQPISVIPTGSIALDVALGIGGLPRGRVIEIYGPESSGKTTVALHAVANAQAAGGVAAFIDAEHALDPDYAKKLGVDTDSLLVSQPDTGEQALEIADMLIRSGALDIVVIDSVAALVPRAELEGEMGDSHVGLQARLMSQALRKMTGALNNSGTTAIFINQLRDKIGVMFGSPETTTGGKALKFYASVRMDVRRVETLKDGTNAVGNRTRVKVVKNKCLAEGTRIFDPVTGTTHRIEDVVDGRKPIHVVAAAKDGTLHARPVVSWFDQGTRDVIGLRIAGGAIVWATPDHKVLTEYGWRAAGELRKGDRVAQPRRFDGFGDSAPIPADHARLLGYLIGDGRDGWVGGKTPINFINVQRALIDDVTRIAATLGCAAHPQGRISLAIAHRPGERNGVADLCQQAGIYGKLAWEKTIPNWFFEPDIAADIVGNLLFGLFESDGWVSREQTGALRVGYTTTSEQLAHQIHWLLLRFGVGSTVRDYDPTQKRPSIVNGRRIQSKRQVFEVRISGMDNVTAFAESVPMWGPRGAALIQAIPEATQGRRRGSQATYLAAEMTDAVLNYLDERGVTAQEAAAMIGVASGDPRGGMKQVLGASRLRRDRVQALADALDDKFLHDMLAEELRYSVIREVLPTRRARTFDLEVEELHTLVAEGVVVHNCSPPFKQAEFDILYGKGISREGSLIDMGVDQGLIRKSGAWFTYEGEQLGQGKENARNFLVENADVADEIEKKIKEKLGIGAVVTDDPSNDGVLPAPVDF

[3] = molecular target: T3, RNA-binding protein pos-1 (Caenorhabditis elegans, UniProt G5EF15); test: inhibitors of POS-1/mex-3 RNA binding, dose response, biochemical, fluorescence polarization (AID 1964);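 further: purified POS-1 fused to maltose binding protein made in E. coli; potency of compounds blocking POS-1 binding to fluorescent RNA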
T3 sequence (G5EF15 whole entry): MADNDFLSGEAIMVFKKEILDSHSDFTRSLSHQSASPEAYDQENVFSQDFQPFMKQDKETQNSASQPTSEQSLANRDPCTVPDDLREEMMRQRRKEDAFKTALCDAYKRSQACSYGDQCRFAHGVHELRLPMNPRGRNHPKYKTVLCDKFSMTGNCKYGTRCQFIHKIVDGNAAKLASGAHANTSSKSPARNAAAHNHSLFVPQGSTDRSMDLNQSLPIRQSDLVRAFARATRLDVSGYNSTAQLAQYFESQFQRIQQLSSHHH

[4] = molecular target: T4, Zinc finger protein mex-5 (Caenorhabditis elegans, UniProt Q9XUB2); test: MEX-5/TCR-2 RNA interaction inhibitors, dose response, biochemical, C. elegans, fluorescence polarization (AID 1960)
T4 sequence (Q9XUB2 whole entry): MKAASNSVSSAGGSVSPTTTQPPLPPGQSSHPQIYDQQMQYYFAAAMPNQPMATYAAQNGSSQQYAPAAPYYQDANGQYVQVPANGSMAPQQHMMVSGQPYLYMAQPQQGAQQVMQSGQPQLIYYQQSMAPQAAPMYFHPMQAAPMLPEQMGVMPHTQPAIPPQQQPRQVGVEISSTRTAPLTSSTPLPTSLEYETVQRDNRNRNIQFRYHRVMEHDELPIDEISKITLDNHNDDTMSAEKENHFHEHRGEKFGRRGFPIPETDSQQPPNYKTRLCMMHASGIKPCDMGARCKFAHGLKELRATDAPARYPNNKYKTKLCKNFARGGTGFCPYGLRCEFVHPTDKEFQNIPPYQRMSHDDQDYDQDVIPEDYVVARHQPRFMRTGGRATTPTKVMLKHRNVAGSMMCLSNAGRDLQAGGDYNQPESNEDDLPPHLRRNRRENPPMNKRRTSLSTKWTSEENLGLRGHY

[5] = NIH-3T3 fibroblast cytotoxicity, dose response, cytotoxicity control, cell-based, fluorescence, Alamar Blue, secondary assay (AID 2327); assay type: functional;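 further: NIH-3T3 mouse fibroblasts cultured with fluconazole at 8 µg/mL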
Streptokinase A = molecular target: T5, Streptokinase A (Streptococcus pyogenes serotype M1, UniProt P10520); test: S. pyogenes streptokinase expression inhibitors, potency, dose response, plasminogen activation absorbance, OD405 (AID 1914); assay type: functional, Streptococcus pyogenes M1 GAS;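 further: secreted streptokinase activity via plasminogen activation per viability signal from cell pellet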
T5 sequence (P10520 whole entry): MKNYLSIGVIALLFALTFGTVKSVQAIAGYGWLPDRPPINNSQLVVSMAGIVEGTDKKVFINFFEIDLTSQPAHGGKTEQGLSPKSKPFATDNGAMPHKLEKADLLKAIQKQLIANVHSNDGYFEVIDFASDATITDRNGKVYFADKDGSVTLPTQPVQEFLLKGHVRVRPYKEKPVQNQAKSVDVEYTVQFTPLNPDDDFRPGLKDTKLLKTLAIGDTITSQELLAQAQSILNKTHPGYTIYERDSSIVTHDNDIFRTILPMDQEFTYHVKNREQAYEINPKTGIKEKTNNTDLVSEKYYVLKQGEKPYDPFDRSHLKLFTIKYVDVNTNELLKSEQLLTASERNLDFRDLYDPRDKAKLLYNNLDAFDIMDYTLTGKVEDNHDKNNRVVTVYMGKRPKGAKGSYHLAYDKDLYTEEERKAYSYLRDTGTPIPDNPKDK

[6] = system: Streptococcus sp. 'group A'; test: growth inhibition of control SK(-) GAS strain, dose response, counter-screen for streptokinase expression inhibitor project, luminescence, kanamycin, BacTiterGlo, confirmation (AID 1900); assay type: functional, organism-based
Streptococcus = test: Group A Streptococcus viability loss, dose response, counter-screen for streptokinase expression inhibitor project, luminescence, BacTiterGlo (AID 1915); assay type: functional, organism-based;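 further: potency for reduction of bacterial viability or growth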
[7] = Luminescence Cell-Based Dose Response HTS to Identify Activators of Luciferase Translation or Activity in H4 […] Cells. [Related pubchem assays: 1829 (Project Summary), 1814 (Primary HTS)]; assay type: functional
H4 = test: Luminescence Cell-Based Dose Response HTS to Identify Activators of 5'UTR Stem-Loop Driven Prion Protein mRNA Translation in H4 Neuroglioblastoma Cells. [Related pubchem assays: 1829 (Project Summary), 1814 (Primary HTS)]; assay type: functional; details: Homo sapiens
[8] = Shn3 3'UTR reporter inhibitors, dose response, cell-based, Clone20 osteoblasts, firefly luciferase, cherry-picked (AID 624132); assay type: functional;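 further: firefly luciferase luminescence from reporter carrying the Shn3 3'UTR in osteoblasts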
[9] = molecular target: T6, Heat shock factor protein 1 (Mus musculus, UniProt P38532); test: inhibition of MG132-induced HSE-luciferase signal, confirmation, cell-based, NIH3T3, luminescence, dose retest (AID 2382); assay type: functional;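 further: NIH3T3 fibroblasts with HSF1-driven luciferase reporter stressed by proteasome inhibitor MG132; luminescence from HSF1-driven luciferase expression after 8 hours of MG132 stress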
T6 sequence (P38532 whole entry): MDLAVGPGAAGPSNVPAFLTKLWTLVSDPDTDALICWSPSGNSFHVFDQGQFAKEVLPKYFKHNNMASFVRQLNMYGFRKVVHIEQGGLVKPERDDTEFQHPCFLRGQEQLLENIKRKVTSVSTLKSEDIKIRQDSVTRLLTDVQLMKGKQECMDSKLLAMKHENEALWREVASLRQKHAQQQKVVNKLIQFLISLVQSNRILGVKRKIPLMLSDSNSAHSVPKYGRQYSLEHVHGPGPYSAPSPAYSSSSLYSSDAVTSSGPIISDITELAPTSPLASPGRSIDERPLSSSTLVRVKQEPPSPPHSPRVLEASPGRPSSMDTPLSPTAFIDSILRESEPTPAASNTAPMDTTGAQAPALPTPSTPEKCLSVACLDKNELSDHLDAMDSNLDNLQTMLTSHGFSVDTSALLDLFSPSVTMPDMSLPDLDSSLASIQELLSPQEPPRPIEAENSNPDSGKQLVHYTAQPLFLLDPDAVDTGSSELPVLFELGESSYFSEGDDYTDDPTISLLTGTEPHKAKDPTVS

[10] = control 3'UTR Renilla luciferase suppression, dose response, counter-screen for Shn3 inhibitor project, cell-based, Clone20-Shn3RL, cherry-picked (AID 624133); assay type: functional

| SMILES | CC50 [1] | AC50 [2] | EC50 (Protein RecA) | further results |
| --- | --- | --- | --- | --- |
| CCc1ccc(Nc2nnc(SCc3cc(=O)n4ccsc4n3)s2)cc1 | 26.4 µM (active) |  |  |  |
| Cc1c(-c2nn(C)c(=O)c3ccccc23)oc2ccc(F)cc2c1=O |  | 3.86 µM (active) | 2.51 µM (active) |  |
| CN(CC(=O)Nc1ccc(N2CCOCC2)cc1)CC(=O)Nc1cccc(C#N)c1 |  | 199 µM (active) | > 380 µM (inactive) |  |
| CCCCC1=CC2=C(c3ccco3)C(=O)C(C)(OC(=O)c3ccc(OC)cc3)C(=O)C2=CN1C1CCCC1 (stereo unspecified) |  |  |  | EC50 [3]: 16 µM (active); EC50 [4]: 14.3 µM (active) |
| c1ccc(-c2ccc(C3=Nn4c(nnc4-c4cccs4)SC3)cc2)cc1 | 16.6 µM (active) |  |  |  |
| CC(C)OC(=O)C(C#N)c1nc2ccccc2nc1N1CCCC1 (stereo unspecified) |  |  |  | EC50 [3]: > 300 µM (not active); EC50 [4]: > 300 µM (not active) |
| O=C(CSC1=NCCS1)Nc1ccc(S(=O)(=O)NC2CCCCC2)cc1 |  |  | 13.3 µM (active) |  |
| CN(c1ccccc1)S(=O)(=O)c1cccc(NC(=O)c2cccc(C#N)c2)c1 | 16.1 µM (active) |  |  |  |
| Cc1ccc(S(=O)(=O)N2CCN(C(=O)c3ccc(N4CCCCC4)c([N+](=O)[O-])c3)CC2)cc1 | > 50 µM (active) |  |  |  |
| Cc1cc(NC(=O)COC(=O)[C@@H](NS(=O)(=O)c2ccc(Br)cc2)C(C)C)no1 |  |  |  | EC50 [5]: > 150 µM (inactive) |
| COC(=O)CC1=NN(c2ccccc2)C(=O)C1 |  | 13.2 µM (active) | 4.42 µM (active) |  |
| CN1C(=O)N(C)c2cccc3cccc1c23 | 22.5 µM (active) |  |  |  |
| O=C(c1ccc(Br)s1)N1CCN(c2ccccn2)CC1 |  |  |  | EC50 [3]: > 300 µM (not active); EC50 [4]: > 300 µM (not active) |
| CCc1cc(C(=O)c2ccc(C)cc2)c(NC(=O)CCl)s1 |  | 3.98 µM (active) | 1.07 µM (active) |  |
| Cc1ccc(C2C(C#N)=C(N)Oc3[nH]nc(-c4cccnc4)c32)o1 (stereo unspecified) |  | 25.6 µM (active) | 6.46 µM (active) |  |
| O=S(=O)(c1ccccc1F)N1CCC(c2nc(O)c3nnn(Cc4ccc(F)cc4)c3n2)CC1 | 27 µM (active) |  |  |  |
| O=C1CCSc2ccc(Cl)cc2N1Cc1ccc(Cl)cc1 | 23.4 µM (active) |  |  | EC50 (Streptokinase A): 18.4 µM (active); EC50 [6]: 7.8 µM (active); EC50 (Streptococcus): 49.5 µM (active) |
| Cc1ccc([N+](=O)[O-])cc1S(=O)(=O)N(C(=O)c1ccncc1)c1ccc2oc3c(c2c1)CCCC3 |  | 42 µM (active) | 10.8 µM (active) |  |
| CC(=O)Nc1ccc(NC(=O)CSc2ccc3nnc(CCNS(=O)(=O)c4ccc(C)cc4)n3n2)cc1 |  |  |  | EC50 [5]: > 160 µM (inactive) |
| CCSC1=NC(/C=C/c2ccc(Cl)cc2Cl)=CC(C)(C)N1 | 18 µM (active) |  |  |  |
| Cc1nn(Cc2ccccc2)c2c1C(c1ccccc1)C(C#N)=C(N)O2 (stereo unspecified) |  | 8.53 µM (active) | 3.64 µM (active) |  |
| Cc1ccc(C)c(N2CCN(S(=O)(=O)c3ccc(-c4cc(C)no4)s3)CC2)c1 | > 50 µM (active) |  |  |  |
| CC(C)(c1ccccc1)c1ccc(OCC2CO2)cc1 (stereo unspecified) |  | 10 µM (active) | 11.9 µM (active) |  |
| Cn1nc(C(F)(F)F)c2cc(C(=O)Nc3ccc(Cl)cc3)sc21 | 21.4 µM (active) |  |  |  |
| COC(=O)Cc1n[nH]c2c1C(c1ccc(O)c(OC)c1)C(C#N)=C(N)O2 (stereo unspecified) |  | 7.51 µM (inconclusive) | 2.88 µM (active) |  |
| O=C(CNC(=O)c1ccc(F)cc1)c1ccc(Cl)cc1 |  |  |  | EC50 [7]: 0.717 µM (active); EC50 (H4): 79 µM (active) |
| C=CC/N=C1/S/C(=C/c2cccc([N+](=O)[O-])c2)C(=O)N1CC=C | 28 µM (active) |  |  |  |
| COCCN1Cc2cccc(C(=O)Nc3ccc4c(c3)OCCO4)c2C1=O |  |  |  | AC50 [8]: 27.1 µM (active); EC50 [9]: 11.6 µM (active); AC50 [10]: 19.1 µM (active) |
